Like-named read-outs stand apart in the source and are kept apart here.
What was measured:
H1299 cells = test: Anti-proliferative effect by Cell Titer-Glo, H1299; type: cell-based; settings: Homo sapiens, NCI-H1299, 72 h, read-out: IC50 measured value H1299
Description: (§1) Compound solutions of different concentration gradients were prepared. DMSO was dissolved to a concentration of 10 mM test compound and 10 mM reference compound AZD1775, and the compounds were serially diluted in culture medium for a total of 9 dose points, with 2 parallel replicates set at each concentration. The cell growth group without compound was used as a positive control (maximum signal control) and the medium was used as a negative control (minimum signal control), while ensuring that the final level of DMSO in each reaction well was 0.2%. After removing the medium from the 384-well plate, 25 ul of the configured compound at different concentrations was transferred into the well plate and the compound and cells were incubated in the cell incubator at 37° C. with 5% CO2 for 3 days.
(§2) The 384-well plates were removed from the cell incubator and allowed to equilibrate for 1 h to room temperature. 25 ul of Cell Titer-Glo assay was added to each well, lysed on a shaker for 2 min and then read out (Luminescence) using a BMG PHERAStar after 10 min incubation. Calculate the inhibition rate from the luminescence signal: first calculate the average of the positive control (maximum signal control) and the negative control (minimum signal control).
(§3) [formula] to calculate the rate of inhibition of the cells by different concentrations of the compounds. The IC50 of the compound on cell activity inhibition was calculated by fitting a log(inhibitor) vs. response-Variable slope model to GraphPad Prism 6. The fitted equation was: Y=Bottom+(Top−Bottom)/(1+10^((Log IC50−X)*HillSlope)), where Y represents the rate of inhibition and X represents the concentration of the known compound after Log.

MIA Paca-2 cells = test: Anti-proliferative effect by Cell Titer-Glo, MIA Paca-2; type: cell-based; settings: Homo sapiens, read-out: IC50 measured value MIA Paca-2
Description: as §1, §2, §3

Wee1 protein = molecular target: T1, Wee1 protein (Homo sapiens, UniProt P30291); test: Binding of compound to Wee1 protein and Tracer 178 by TR-FRET; settings: inhibitory activity against Wee1 kinase, read-out: IC50 measured value
T1 construct: purchased Thermo Fisher PR7373A
T1 sequence (P30291 whole entry): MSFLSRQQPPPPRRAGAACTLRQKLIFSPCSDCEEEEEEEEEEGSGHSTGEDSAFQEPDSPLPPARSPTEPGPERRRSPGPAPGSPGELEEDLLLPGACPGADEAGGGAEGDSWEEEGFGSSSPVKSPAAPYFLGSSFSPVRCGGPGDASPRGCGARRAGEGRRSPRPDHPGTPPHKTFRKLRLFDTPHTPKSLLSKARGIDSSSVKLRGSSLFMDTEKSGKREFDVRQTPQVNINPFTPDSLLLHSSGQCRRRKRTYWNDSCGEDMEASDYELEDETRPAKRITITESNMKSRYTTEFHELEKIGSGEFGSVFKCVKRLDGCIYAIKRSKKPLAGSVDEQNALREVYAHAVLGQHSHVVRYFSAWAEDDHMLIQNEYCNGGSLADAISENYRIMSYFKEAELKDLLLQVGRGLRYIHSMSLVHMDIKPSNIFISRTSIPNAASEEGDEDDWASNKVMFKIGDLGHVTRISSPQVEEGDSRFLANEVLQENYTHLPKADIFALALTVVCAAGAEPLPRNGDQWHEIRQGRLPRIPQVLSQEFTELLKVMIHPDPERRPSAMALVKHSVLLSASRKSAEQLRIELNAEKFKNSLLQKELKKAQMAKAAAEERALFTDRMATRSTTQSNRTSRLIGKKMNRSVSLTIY
Description: First, solutions of the compounds in different concentration gradients were prepared. […] DMSO was added as a positive control (maximal signal control) and a negative control (minimal signal control) and a final level of 0.25% DMSO was ensured in each reaction well.
WEE1 (Thermo Fisher, Cat #PR7373A) protein in buffer (50 mM Hepes pH 7.5, 10 mM MgCl2, 1 mM EGTA, 0.01% Brij-35) at 15 nM) in different concentrations of compound, and Tracer 178 (Invitrogen, PV5593) and MAb Anti-GST-Eu crypate (Cisbio, 61GSTKLA) were added to 384-well plates (Corning, cat #3574), centrifuged at 1000 rpm for 1 min and the 384-well plates were incubated in a constant temperature shaker for 60 min at 25° C. and 300 rpm. Tracer 178 and MAb Anti-GST-Eu crypate were prepared in buffer (50 mM HEPES pH 7.5, 10 mM MgCl2, 1 mM EGTA, 0.01% Brij-35) with a final reaction concentration of 50 nM for Tracer 178 and a final concentration of 2 nM for MAb Anti-GST-Eu crypate, where the negative control (minimal signal control) used an equal amount of buffer in place of the protein solution.
After incubation, readings were performed using BMG PHERAStar (excitation light at 337 nm and emission light at wavelength values of 620 nm and 665 nm to read the fluorescence signal values). […] The IC50 for inhibition of enzyme activity by the compounds was then calculated using GraphPad Prism 6 and fitted with a log (inhibitor) vs. response-Variable slope mode. The fitting equation was: Y=Bottom+(Top-Bottom)/(1+10^((Log IC50−X)*HillSlope)), where Y represents the percentage of residual enzyme activity known and X represents the known concentration of compound after the logarithm.

[1] = H1299 cells, 3 days, Cell Titer-Glo
[2] = 72 h, MIA Paca-2 cells, 3 days, Cell Titer-Glo

| SMILES | IC50 (H1299 cells; [1]) | IC50 (MIA Paca-2 cells; [2]) | IC50 (Wee1 protein) | IC50 (H1299 cells) | IC50 (MIA Paca-2 cells; MIA PaCa-2, 72 h) |
| --- | --- | --- | --- | --- | --- |
| CN1CCN(c2ccc(Nc3ncc4cnn(-c5cccc(N=S(C)(C)=O)c5F)c4n3)cc2)CC1 [Compound 33] | 1000 to 5000 nM | 1000 to 5000 nM | 100 to 1000 nM | – | – |
| CN1CCN(c2ccc(Nc3ncc4cnn(-c5ccc6scnc6c5)c4n3)cc2)CC1 [Compound 37] | 100 to 1000 nM | 100 to 1000 nM | 10 to 100 nM | – | – |
| CN1CCN(c2ccc(Nc3ncc4cnn(-c5ccc6c(c5)C(=O)NC6)c4n3)cc2)CC1 [Compound 46] | 1000 to 5000 nM | 100 to 1000 nM | 10 to 100 nM | – | – |
| CN1CCN(c2ccc(Nc3ncc4cnn(-c5cccc(-n6ccccc6=O)n5)c4n3)cc2)CC1 [Compound 54] | 5000 to 20000 nM | 1000 to 5000 nM | 10 to 100 nM | – | – |
| CN1CCN(c2ccc(Nc3ncc4cnn(-c5cccc(C(C)(C)O)c5)c4n3)cc2)CC1 [Compound 12] | 100 to 1000 nM | – | 10 to 100 nM | – | – |
| CCn1ncc2ccc(-n3ncc4cnc(Nc5ccc(N6CCN(C)CC6)cc5)nc43)nc21 [Compound 60] | – | – | 10 to 100 nM | 1000 to 5000 nM | 100 to 1000 nM |
| CN1CCN(c2ccc(Nc3ncc4cnn(-c5cccc(C(C)(C)O)c5)c4n3)cn2)CC1 [Compound 47] | 100 to 1000 nM | 100 to 1000 nM | 100 to 1000 nM | – | – |
| COc1cc(N2CCN(C)CC2)ccc1Nc1ncc2cnn(-c3cccc(N=S(C)(C)=O)n3)c2n1 [Compound 22] | 5000 to 20000 nM | 5000 to 20000 nM | 100 to 1000 nM | – | – |
| CN1CCN(c2ccc(Nc3ncc4c(=O)n(C)n(-c5cccc(N=S(C)(C)=O)n5)c4n3)cc2)CC1 [Compound 27A] | 100 to 1000 nM | 100 to 1000 nM | 1 to 10 nM | – | – |
| CN1CCN(c2ccc(Nc3ncc4cnn(-c5cccc(N=S(C)(C)=O)c5)c4n3)cc2)CC1 [Compound 30] | – | – | 10 to 100 nM | 1000 to 5000 nM | 100 to 1000 nM |
| Cc1nc2cccc(-n3ncc4cnc(Nc5ccc(N6CCN(C)CC6)cc5)nc43)c2o1 [Compound 51] | 100 to 1000 nM | 100 to 1000 nM | 10 to 100 nM | – | – |
| CN1CCN(c2ccc(Nc3ncc4cnn(-c5cncc(N=S(C)(C)=O)c5)c4n3)cc2)CC1 [Compound 31] | 1000 to 5000 nM | 100 to 1000 nM | 10 to 100 nM | – | – |
| CN1CCN(c2ccc(Nc3ncc4cnn(-c5ccc6ncc(C(C)(C)O)n6c5)c4n3)cc2)CC1 [Compound 55] | 1000 to 5000 nM | 1000 to 5000 nM | 10 to 100 nM | – | – |
| CN1CCN(c2ccc(Nc3ncc4cnn(-c5cc(C(C)(C)O)ccn5)c4n3)cc2)CC1 [Compound 34] | 100 to 1000 nM | 100 to 1000 nM | 100 to 1000 nM | – | – |
| CN1CCN(c2ccc(Nc3ncc4cnn(-c5cc(C(C)(C)O)ccc5F)c4n3)cc2)CC1 [Compound 52] | 100 to 1000 nM | 100 to 1000 nM | 100 to 1000 nM | – | – |
| CN1CCN(c2ccc(Nc3ncc4cnn(-c5ccc6c(c5)C(=O)NCC6)c4n3)cc2)CC1 [Compound 38] | 100 to 1000 nM | 100 to 1000 nM | 10 to 100 nM | – | – |
| CCC1(O)CCc2ccc(-n3ncc4cnc(Nc5ccc(N6CCN(C)CC6)cc5)nc43)nc21 (centres unmarked) [Compound 57] | 1000 to 5000 nM | 100 to 1000 nM | 100 to 1000 nM | – | – |
| CN1CCN(c2ccc(Nc3ncc4cnn(-c5ccc6c(c5)C(O)CO6)c4n3)cc2)CC1 (centres unmarked) [Compound 39] | 1000 to 5000 nM | 100 to 1000 nM | 10 to 100 nM | – | – |
| CN1CCc2ccc(Nc3ncc4cnn(-c5cccc(N=S(C)(C)=O)n5)c4n3)cc2C1 [Compound 8] | 1000 to 5000 nM | – | 1 to 10 nM | – | – |
| CN1CCN(c2ccc(Nc3ncc4cnn(-c5cccc(C(C)(O)C(F)(F)F)n5)c4n3)cc2)CC1 (centres unmarked) [Compound 4] | 1000 to 5000 nM | – | 10 to 100 nM | – | – |
| CN1CC2CC1CN2c1ccc(Nc2ncc3cnn(-c4cccc(N=S(C)(C)=O)n4)c3n2)cc1 (centres unmarked) [Compound 13] | 5000 to 20000 nM | – | 1 to 10 nM | – | – |
